Consider 31 molecules from PMC8286840, “Identifying SARS-CoV-2 antiviral compounds by screening for small molecule inhibitors of Nsp3 papain-like protease” (Biochemical Journal, 2021).

Test [1] concerns the target T1, SARS-CoV-2 PLpro (nsp3 1564–1878) (Severe acute respiratory syndrome coronavirus 2, UniProt P0DTD1). Briefly: biochemical. Further details: FRET-quenched peptide (Pro3) cleavage by PLpro, 10 min pre-incubation, slope over 20 min, normalised to no-compound control. The following applies: low concentration screen, read-out: % of control remaining.
Test [2] deals with T1, SARS-CoV-2 PLpro (nsp3 1564–1878). Briefly: biochemical. Further details: FRET-quenched peptide (Pro3) cleavage by PLpro, 10 min pre-incubation, slope over 20 min, normalised to no-compound control. Conditions: high concentration screen, read-out: % of control remaining.

Molecules are shown by their SMILES. Counter-ions that a name gives are not always drawn. Like-named read-outs stand apart in the source and are kept apart here.

For the molecule `CCCCCCCC/C=C\CCCCCCCC(=O)OCC(CO)OC(=O)CCCCCCC/C=C\CCCCCCCC` (centres unmarked) [1,2-Dioleoyl-glycerol (18:1)], the remaining activity at 1.25 µM in test [1] (Well no.=4478) amounted to 96%. The remaining activity at 3.75 µM in test [2] (Well no.=4478) worked out at 100%.

Turning to `S=c1ccss1` [1,2-Dithiole-3-thione], the remaining activity at 1.25 µM in test [1] (Well no.=4139) is 93.1%. In test [2] (Well no.=4139), the remaining activity at 3.75 µM was determined as 94.1%.

Turning to `CCCc1c(-c2ccc(O)cc2)nn(-c2ccc(O)cc2)c1-c1ccc(O)cc1` [1,3,5-tris(4-hydroxyphenyl)-4-propyl-1H-pyrazole], the remaining activity at 1.25 µM in test [1] (Well no.=468) came out at 105%. Besides, in test [2] (Well no.=468), the remaining activity at 3.75 µM was 109%.

For the molecule `CCn1c(=O)c2[nH]c(-c3ccccc3)nc2n(CC)c1=O` [1,3-Diethyl-8-phenylxanthine], in test [1] (Well no.=204), the remaining activity at 1.25 µM came to 98.5%. Moreover, the remaining activity at 3.75 µM in test [2] (Well no.=204) was 100%.

As for `Cn1c(=O)c2[nH]c(-c3ccccc3)nc2n(C)c1=O` [1,3-Dimethyl-8-phenylxanthine], in test [1] (Well no.=952), the remaining activity at 1.25 µM was 103%. Further, in test [2] (Well no.=952), the remaining activity at 3.75 µM came to 99.2%.

Turning to `Cn1c(=O)c2[nH]c(=O)[nH]c2n(C)c1=O` [1,3-Dimethyluric acid], in test [1] (Well no.=6819), the remaining activity at 1.25 µM was determined as 99.4%. Moreover, the remaining activity at 3.75 µM in test [2] (Well no.=6819) came out at 95.7%.

Take `CCCn1c(=O)c2c(ncn2C)n(CCC)c1=O` [1,3-Dipropyl-7-methylxanthine]: the remaining activity at 1.25 µM in test [1] (Well no.=448) amounted to 102%. In addition, the remaining activity at 3.75 µM in test [2] (Well no.=448) came to 101%.

Regarding `N=C(N)SCCc1cccc(CCSC(=N)N)c1` [1,3-PBIT dihydrobromide], the remaining activity at 1.25 µM in test [1] (Well no.=1159) amounted to 104%. In addition, the remaining activity at 3.75 µM in test [2] (Well no.=1159) came out at 104%.

On to `OC[C@H]1NC[C@@H](O)[C@@H]1O` [1,4-Dideoxy-1,4-imino-D-arabinitol], for which the remaining activity at 1.25 µM in test [1] (Well no.=589) turned out to be 102%. Besides, in test [2] (Well no.=589), the remaining activity at 3.75 µM was determined as 100%.

Regarding `OC[C@@H](O)[C@H]1NC[C@@H](O)[C@H]1O` [1,4-Dideoxy-1,4-imino-D-mannitol hydrochloride], in test [1] (Well no.=536), the remaining activity at 1.25 µM came out at 101%. The remaining activity at 3.75 µM in test [2] (Well no.=536) is 99.2%.

In the case of `N=C(N)SCCc1ccc(CCSC(=N)N)cc1` [1,4-PBIT dihydrobromide], the remaining activity at 1.25 µM in test [1] (Well no.=1255) worked out at 104%. In addition, the remaining activity at 3.75 µM in test [2] (Well no.=1255) came out at 105%.

With `O=c1[nH]ccc2c(O)cccc12` [1,5-Isoquinolinediol], the remaining activity at 1.25 µM in test [1] (Well no.=827) worked out at 97.8%. The remaining activity at 3.75 µM in test [2] (Well no.=827) stood at 99.5%.

Turning to `Cn1c(=O)[nH]c2ncn(C)c2c1=O` [1,7-Dimethylxanthine], in test [1] (Well no.=691), the remaining activity at 1.25 µM came out at 98.6%. The remaining activity at 3.75 µM in test [2] (Well no.=691) is 99.7%.

Consider `NCCCCCCCCCCN` [1,10-Diaminodecane], for which the remaining activity at 1.25 µM in test [1] (Well no.=642) was 94.7%. Further, the remaining activity at 3.75 µM in test [2] (Well no.=642) was 91.7%.

For `c1cnc2c(c1)ccc1cccnc12` [1,10-Phenanthroline monohydrate], the remaining activity at 1.25 µM in test [1] (Well no.=1259) was found to be 101%. For the same molecule, the remaining activity at 3.75 µM in test [2] (Well no.=1259) was determined as 101%.

In the case of `c1ccc2c(N3CCNCC3)cccc2c1` [1-(1-Naphthyl)piperazine hydrochloride], in test [1] (Well no.=1467), the remaining activity at 1.25 µM amounted to 99.5%. Also, the remaining activity at 3.75 µM in test [2] (Well no.=1467) came to 99.2%.

In the case of `Clc1ccc(C(c2ccccc2Cl)C(Cl)Cl)cc1` (centres unmarked) [1-(2-Chlorophenyl)-1-(4-chlorophenyl)-2,2-dichloroethane], in test [1] (Well no.=76), the remaining activity at 1.25 µM is 96.7%. The remaining activity at 3.75 µM in test [2] (Well no.=76) came to 97.1%.

As to `COc1ccccc1N1CCNCC1` [1-(2-Methoxyphenyl)piperazine hydrochloride], in test [1] (Well no.=1181), the remaining activity at 1.25 µM amounted to 104%. In addition, the remaining activity at 3.75 µM in test [2] (Well no.=1181) came out at 102%.

For `O=c1[nH]c2ccccc2n1CCN1CCN(c2cccc(C(F)(F)F)c2)CC1` [1-(2-{4-[3-(trifluoromethyl)phenyl]-1-piperazinyl}ethyl)-1,3-dihydro-2H-benzimidazol-2-one], the remaining activity at 1.25 µM in test [1] (Well no.=5866) was determined as 103%. Further, the remaining activity at 3.75 µM in test [2] (Well no.=5866) turned out to be 97.9%.

In the case of `CCCCCC(=O)c1c(O)c(Cl)c(OC)c(Cl)c1O` [1-(3,5-dichloro-2,6-dihydroxy-4-methoxyphenyl)-1-hexanone], in test [1] (Well no.=5626), the remaining activity at 1.25 µM was found to be 99.3%. For the same molecule, in test [2] (Well no.=5626), the remaining activity at 3.75 µM amounted to 102%.

`Clc1cccc(N2CCNCC2)c1` [1-(3-Chlorophenyl)piperazine dihydrochloride]: the remaining activity at 1.25 µM in test [1] (Well no.=36) is 106%. Besides, the remaining activity at 3.75 µM in test [2] (Well no.=36) is 104%.

Turning to `COc1ccc2c(c1)c(CC(=O)O)c(C)n2Cc1ccc(Cl)cc1` [1-(4-Chlorobenzyl)-5-methoxy-2-methylindole-3-acetic acid], in test [1] (Well no.=379), the remaining activity at 1.25 µM turned out to be 99.8%. Besides, the remaining activity at 3.75 µM in test [2] (Well no.=379) came to 99.4%.

As to `COc1ccc2c(c1)c(CC(=O)O)c(C)n2Cc1ccc(F)cc1` [1-(4-Fluorobenzyl)-5-methoxy-2-methylindole-3-acetic acid], the remaining activity at 1.25 µM in test [1] (Well no.=515) came out at 99.4%. Also, the remaining activity at 3.75 µM in test [2] (Well no.=515) is 99.5%.

Take `Oc1ccc(Cn2cc[nH]c2=S)cc1` [1-(4-Hydroxybenzyl)imidazole-2-thiol]: in test [1] (Well no.=516), the remaining activity at 1.25 µM is 104%. In addition, the remaining activity at 3.75 µM in test [2] (Well no.=516) amounted to 105%.

For the molecule `COc1ccc2cc(OCC3(C(=O)O)CN(C(=O)c4ccc(F)cc4)C3)ccc2c1` [1-(4-fluorobenzoyl)-3-(((6-methoxynaphthalen-2-yl)oxy)methyl)azetidine-3-carboxylic acid], in test [1] (Well no.=5909), the remaining activity at 1.25 µM turned out to be 103%. In addition, in test [2] (Well no.=5909), the remaining activity at 3.75 µM came out at 102%.

As to `CC1CNCCN1S(=O)(=O)c1cccc2cnccc12` (centres unmarked) [1-(5-Isoquinolinylsulfonyl)-2-methylpiperazine dihydrochloride], the remaining activity at 1.25 µM in test [1] (Well no.=965) was 104%. Further, in test [2] (Well no.=965), the remaining activity at 3.75 µM was 103%.

Take `CC1CN(S(=O)(=O)c2cccc3cnccc23)CCN1` (centres unmarked) [1-(5-Isoquinolinylsulfonyl)-3-methylpiperazine dihydrochloride]: the remaining activity at 1.25 µM in test [1] (Well no.=869) amounted to 106%. In addition, in test [2] (Well no.=869), the remaining activity at 3.75 µM amounted to 104%.

Turning to `NC(N)=NC(N)=Nc1cccc(Cl)c1` [1-(m-Chlorophenyl)-biguanide hydrochloride], the remaining activity at 1.25 µM in test [1] (Well no.=487) came to 106%. Further, the remaining activity at 3.75 µM in test [2] (Well no.=487) turned out to be 103%.

With `CN1CCN(CCCCN2C(=O)CN(/N=C/c3ccc(-c4ccc(Cl)cc4)o3)C2=O)CC1` [1-({(E)-[5-(4-chlorophenyl)-2-furyl]methylidene}amino)-3-[4-(4-methyl-1-piperazinyl)butyl]-2,4-imidazolidinedione dihydrochloride], the remaining activity at 1.25 µM in test [1] (Well no.=5603) worked out at 97.6%. Also, the remaining activity at 3.75 µM in test [2] (Well no.=5603) worked out at 101%.

`C=CCn1c(=O)c2c(nc(-c3ccc(S(=O)(=O)O)cc3)n2C)n(C)c1=O` [1-Allyl-3,7-dimethyl-8-p-sulfophenylxanthine]: the remaining activity at 1.25 µM in test [1] (Well no.=16) is 98.3%. In test [2] (Well no.=16), the remaining activity at 3.75 µM was 89.6%.

As to `NC1(C(=O)O)CCCCC1` [1-Amino-1-cyclohexanecarboxylic acid hydrochloride], the remaining activity at 1.25 µM in test [1] (Well no.=160) was found to be 100%. For the same molecule, in test [2] (Well no.=160), the remaining activity at 3.75 µM was found to be 102%.
